Assay results: patent publication US8912121B2, “Herbicidal compositions comprising 4-amino-3-chloro-5-fluoro-6-(4-chloro-2-fluoro-3-methoxyphenyl)pyridine-2-carboxylic acid or a derivative thereof and certain PS II inhibitors” (Dow Agrosciences LLC, priority 2012, dated 2014)

System: SCPMA (Schoenoplectus maritimus, sea clubrush)
Assay: In-water applied mixtures, transplanted paddy rice, greenhouse
Format: in vivo, Schoenoplectus maritimus (L.) Lye
Experimental: Weed seeds or nutlets of the desired test plant species were planted in puddled soil (mud) prepared by mixing a shredded, non-sterilized mineral soil (50.5 percent silt, 25.5 percent clay, and 24 percent sand, with a pH of about 7.6 and an organic matter content of about 2.9 percent) and water at a 1:1 volumetric ratio. The prepared mud was dispensed in 365 mL aliquots into 16-ounce (oz.) non-perforated plastic pots with a surface area of 86.59 square centimeters (cm^2) leaving a headspace of 3 centimeters (cm) in each pot Mud was allowed to dry overnight prior to planting or transplanting. Rice seeds were planted in Sun Gro MetroMix® 306 planting mixture, which typically has a pH of 6.0 to 6.8 and an organic matter content of about 30 percent, in plastic plug trays. Seedlings at the second or third leaf stage of growth were transplanted into 840 mL of mud contained in 32-oz. non-perforated plastic pots with a surface area of 86.59 cm^2 4 days prior to herbicide application. The paddy was created by filling the headspace of the pots with 2.5 to 3 cm of water. When required to ensure good germination and healthy plants, a fungicide treatment and/or other chemical or physical treatment was applied. The plants were grown for 4-22 days in a greenhouse with an approximate 14 h photoperiod which was maintained at about 29° C during the day and 26° C. during the night. Nutrients were added as Osmocote® (19:6:12, N:P:K+ minor nutrients) at 2 g per 16-oz. pot and 4 g per 32-oz. pot. Water was added on a regular basis to maintain the paddy flood, and supplemental lighting was provided with overhead metal halide 1000-Watt lamps as necessary. The plants were employed for testing when they reached the first through fourth true leaf stage.
Treatments consisted of the acid or esters of 4-amino-3-chloro-5-fluoro-6-(4-chloro-2-fluoro-3-methoxy-phenyl)pyridine-2-carboxylic acid (compound A) each formulated as an SC (suspension concentrate) and various herbicidal components alone and in combination. Forms of compound A were applied on an acid equivalent basis.
Other herbicidal components were applied on an active ingredient basis and included photosystem II (PSII)-inhibits propanil formulated as […] bentazon-sodium formulated as Basagran®, and simetryne (technical grade material).
Treatment requirements for each compound or herbicidal component were calculated based upon the rates being tested, the concentration of active ingredient or acid equivalent in the formulation, an application volume of 2 mL per component per pot, and an application area of 86.59 cm^2 per pot.
For formulated compounds, a measured amount was placed in an individual 100 or 200 mL glass vial and was dissolved in a volume of 1.25% (v/v) Agri-Dex® crop oil concentrate to obtain application solutions.
For technical grade compounds, a weighed amount was placed in an individual 100 to 200 mL glass vial and was dissolved in a volume of acetone to obtain concentrated stock solutions. […] The concentrated stock solutions obtained were diluted with an equivalent volume of an aqueous mixture containing 2.5% (v/v) crop oil concentrate so that the final application solutions contained 1.25% (v/v) crop oil concentrate.
Applications were made by injecting with a pipetter appropriate amounts of the application solutions, individually and sequentially, into the aqueous layer of the paddy. Control plants were treated in the same manner with the solvent blank. Applications were made so that all treated plant material received the same concentrations of acetone and crop oil concentrate.
The treated plants and control plants were placed in a greenhouse as described above and water was added as needed to maintain a paddy flood. After approximately 3 weeks the condition of the test plants as compared with that of the untreated plants was determined visually and scored on a scale of 0 to 100 percent where 0 corresponds to no injury or growth inhibition and 100 corresponds to complete kill. […]

Row | SMILES | Visual Weed Control (%) Obs (8.75 g ae/ha, 21 DAA) [%] | Visual Weed Control (%) Obs (17.5 g ae/ha, 21 DAA) [%] | Visual Weed Control (%) Obs (35 g ae/ha, 21 DAA) [%] | Visual Weed Control (%) Obs (42.4 g ae/ha, 20 DAA) [%] | Visual Weed Control (%) Obs (84.8 g ae/ha, 20 DAA) [%] | Visual Weed Control (%) Obs (35 g ae/ha, 20 DAA) [%] | Visual Weed Control (%) Obs (70 g ae/ha, 20 DAA) [%] | Visual Weed Control (%) Obs (1680 g ai/ha, 21 DAA) [%] | Visual Weed Control (%) Obs (3360 g ai/ha, 21 DAA) [%]
1 | COc1c(Cl)ccc(-c2nc(C(=O)O)c(Cl)c(N)c2F)c1F [Compound A Acid, 4-amino-3-chloro-6-(4-chloro-2-fluoro-3-methoxyphenyl)-5-fluoropyridine-2-carboxylic acid] | 0 | 0 | 0 | 0 | 0 |  |  |  | 
2 | COc1c(Cl)ccc(-c2nc(C(=O)OCc3ccccc3)c(Cl)c(N)c2F)c1F [Compound A Benzyl Ester, benzyl ester of 4-amino-3-chloro-5-fluoro-6-(4-chloro-2-fluoro-3-methoxy-phenyl)pyridine-2-carboxylic acid] | 0 | 0 | 0 |  |  | 0 | 0 |  | 
3 | CCC(=O)Nc1ccc(Cl)c(Cl)c1 [Propanil, N-(3,4-dichlorophenyl)propanamide, reference compound] |  |  |  |  |  |  |  | 50 | 90
